What all share (assay type): functional, cell-based
The test system of one experiment is NALM-6. Put plainly: Antiproliferative activity against human NALM6 leukemia cell line.
A further experiment deals with HL-60. The experiment can be described thus: Antiproliferative activity against human HL60 leukemia cell line.
In a further experiment the test system is L1210. The experiment can be described thus: Antiproliferative activity against mouse L1210 leukemia cell line.

The values below come from ChEMBL document CHEMBL1139040, “4-Methylideneisoxazolidin-5-ones--a new class of alpha-methylidene-gamma-lactones with high cytostatic activity” (Bioorg Med Chem Lett, 2006).

Usually IC50 stands for the midpoint of a concentration-inhibition curve. Low values mean higher potency, high ones lower potency. In the case of `C=C1C(=O)ON(C)C1c1cccc2ccccc12` (configuration not stated), the values for the IC50 in the experiment with NALM-6, in the experiment on HL-60 and in the experiment with L1210 were 4.2 µM, 5.6 µM and 3.2 µM, respectively.
Take `C=C1C(=O)ON(C)C1c1ccc(Br)cc1` (configuration not stated): the IC50 with NALM-6 is 4.6 µM; in the experiment on HL-60, 5.1 µM; in the experiment on L1210, 0.7 µM.
Taken in the same sequence, the figures for `C=C1C(=O)ON(C)C1C(C)CCC` (configuration not stated) were 0.34 µM, 4.7 µM and 1.9 µM.
The like results for `C=C1C(=O)ON(C)C1c1ccc([N+](=O)[O-])cc1` (configuration not stated) were, in that order, 5.2 µM, 7.4 µM and 0.8 µM.
For the molecule `C=C1C(=O)ON(C)C1C(C)C` (configuration not stated), the IC50 in the experiment with NALM-6 came out at 4.16 µM; in the experiment on HL-60, 0.74 µM; in the experiment with L1210, 2.63 µM.
Taken in the same sequence, the figures for `C=C1C(=O)ON(C)C1c1ccc2c(c1)OCO2` (configuration not stated) were 4.2 µM, 6.6 µM and 7 µM.
The like results for `C=C1C(=O)ON(C)C1c1ccccc1` (configuration not stated) were, in that order, 4.96 µM, 34.8 µM and 5.5 µM.
Turning to `C=C1C(=O)ON(C)C1c1ccc(OC)cc1` (configuration not stated), the IC50 came to 5.5 µM in the experiment with NALM-6, 5.4 µM in the experiment on HL-60 and 3.5 µM in the experiment on L1210.
The like results for `C=C1C(=O)ON(C)C1c1ccc(C)cc1` (configuration not stated) were, in that order, 5.8 µM, 5.4 µM and 0.8 µM.
